Measured values reported in article PMC5766581, “NF-κB inducing kinase is a therapeutic target for systemic lupus erythematosus” (Nature Communications, 2018).

How the values were obtained:
Experiment in all cases: SelectScreen kinase panel
[1] = target: T1, STK33 (Homo sapiens, UniProt Q9BYT3); assay type: binding
T1 construct: purchased Invitrogen / ThermoFisher SelectScreen
Protocol: (§1) The ability of NIK to catalyze the hydrolysis of adenosine-5′-triphosphate (ATP) was monitored using the Transcreener ADP (adenosine-5′-diphosphate) assay (Bell Brook Labs, Fitchburg, WI). Purified human NIK kinase domain (a.a. 340–694) (0.5 nM) or mouse NIK kinase domain (a.a. 329–675) (1 nM) derived from a baculovirus-infected insect cell expression system was incubated with test compounds for 0.5–2 h in 50 mM HEPES buffer (pH 7.2) containing 10 mM MgCl2, 2 mM dithiothreitol, 10 μM ATP, 0.01% Triton X-100, 0.1% gamma-globulins from bovine blood, 1% dimethylsulfoxide (DMSO), 7 μg/mL ADP antibody and 5 nM ADP-MR121 633 tracer. Reactions were quenched by the addition of 20 mM EDTA and 0.01% Brij 35. The tracer bound to the antibody was displaced by the ADP generated during the NIK reaction, which caused a decrease in fluorescence polarization that was measured by laser excitation at 633 nm with a Fluorescence Correlation Spectroscopy Plus reader (Evotec AG). Equilibrium dissociation constant (Ki) values for NIK inhibitors are calculated from plots of activity vs. inhibitor concentration using Morrison’s quadratic equation that accounts for the potential of tight binding, and by also applying the conversion factor that accounted for competitive inhibition and the concentration of substrate used in the assay relative to its Michaelis constant (Km). The Ki values with hPKD1 (PKCμ) were determined using the same assay conditions as for NIK. Ki measurements for hKHS1 and hLRRK2, as well as broad kinase selectivity profiling for SMI1, were carried out by Invitrogen using their SelectScreen kinase assay panel (ThermoFisher Scientific, Madison, WI). The vendor offered two types of kinase activity assays, a peptide phosphorylation assay (Z′-LYTE) and an ADP quantitation assay (Adapta), as well as one type of kinase ATP site competitive binding assay (LanthaScreen). See vendor web site for technology and protocol details for each specific kinase assay.
(§2) The average % Inhibition of each kinase is reported (Supplementary Table 1).

[2] = target: T2, TAK1-TAB1 (Homo sapiens, UniProt O43318); assay type: binding
T2 construct: purchased Invitrogen / ThermoFisher SelectScreen
T2 sequence (O43318 with tags, fused parts or gaps limits assumed): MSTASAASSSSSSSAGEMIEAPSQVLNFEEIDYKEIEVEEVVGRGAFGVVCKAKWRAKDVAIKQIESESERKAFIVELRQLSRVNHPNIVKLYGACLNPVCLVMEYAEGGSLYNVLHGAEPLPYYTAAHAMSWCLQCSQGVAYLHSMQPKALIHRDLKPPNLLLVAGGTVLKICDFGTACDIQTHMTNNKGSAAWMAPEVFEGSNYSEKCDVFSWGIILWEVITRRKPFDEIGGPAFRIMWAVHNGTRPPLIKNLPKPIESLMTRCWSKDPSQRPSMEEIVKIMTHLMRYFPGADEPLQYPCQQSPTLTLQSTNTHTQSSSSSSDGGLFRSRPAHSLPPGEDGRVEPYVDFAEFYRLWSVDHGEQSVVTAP
Protocol: as §1, §2

[3] = target: T3, JNK2 (Homo sapiens, UniProt P45984); assay type: binding
T3 construct: purchased Invitrogen / ThermoFisher SelectScreen
Protocol: as §1, §2

[4] = target: T4, CLK4 (Homo sapiens, UniProt Q9HAZ1); assay type: binding
T4 construct: purchased Invitrogen / ThermoFisher SelectScreen
T4 sequence (Q9HAZ1 whole entry): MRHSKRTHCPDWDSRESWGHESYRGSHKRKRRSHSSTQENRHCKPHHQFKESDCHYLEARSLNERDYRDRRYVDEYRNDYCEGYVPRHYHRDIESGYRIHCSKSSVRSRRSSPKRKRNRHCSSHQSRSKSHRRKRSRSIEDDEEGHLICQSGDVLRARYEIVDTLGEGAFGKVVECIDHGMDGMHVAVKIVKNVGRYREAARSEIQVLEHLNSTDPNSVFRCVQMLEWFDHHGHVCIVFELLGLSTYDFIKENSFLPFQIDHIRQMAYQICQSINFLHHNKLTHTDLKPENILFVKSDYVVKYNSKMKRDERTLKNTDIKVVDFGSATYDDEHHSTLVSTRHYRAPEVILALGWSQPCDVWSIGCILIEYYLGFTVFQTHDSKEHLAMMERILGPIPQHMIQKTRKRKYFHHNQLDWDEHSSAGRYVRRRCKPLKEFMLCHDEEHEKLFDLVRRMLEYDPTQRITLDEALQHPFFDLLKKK
Protocol: as §1, §2

[5] = target: T5, BMPR1A (Homo sapiens, UniProt P36894); assay type: binding
T5 construct: purchased Invitrogen / ThermoFisher SelectScreen
T5 sequence (P36894 24-532): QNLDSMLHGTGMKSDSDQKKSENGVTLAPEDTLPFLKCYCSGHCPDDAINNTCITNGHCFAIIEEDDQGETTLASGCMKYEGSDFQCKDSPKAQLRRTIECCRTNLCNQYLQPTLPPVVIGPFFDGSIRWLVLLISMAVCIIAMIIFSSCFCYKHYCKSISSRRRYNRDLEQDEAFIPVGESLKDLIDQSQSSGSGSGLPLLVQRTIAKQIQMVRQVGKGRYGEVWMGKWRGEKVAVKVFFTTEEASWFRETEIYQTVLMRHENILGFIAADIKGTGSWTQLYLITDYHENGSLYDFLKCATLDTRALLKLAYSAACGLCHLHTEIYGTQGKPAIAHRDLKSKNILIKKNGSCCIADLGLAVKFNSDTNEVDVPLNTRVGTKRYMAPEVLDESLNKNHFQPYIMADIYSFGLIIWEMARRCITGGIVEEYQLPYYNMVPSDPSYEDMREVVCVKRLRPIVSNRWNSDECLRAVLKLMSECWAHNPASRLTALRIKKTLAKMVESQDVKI
Protocol: as §1, §2

[6] = target: T6, CDK8/cyclinC (Homo sapiens, UniProt P49336); assay type: binding
T6 construct: purchased Invitrogen / ThermoFisher SelectScreen
Protocol: as §1, §2

[7] = target: T7, EphA3 (Homo sapiens, UniProt P29320); assay type: binding
T7 construct: purchased Invitrogen / ThermoFisher SelectScreen
Protocol: as §1, §2

[8] = target: T8, ASK1 (Homo sapiens, UniProt Q99683); assay type: binding
T8 construct: purchased Invitrogen / ThermoFisher SelectScreen
Protocol: as §1, §2

[9] = target: T9, LIMK1 (Homo sapiens, UniProt P53667); assay type: binding
T9 construct: purchased Invitrogen / ThermoFisher SelectScreen
T9 sequence (P53667 whole entry): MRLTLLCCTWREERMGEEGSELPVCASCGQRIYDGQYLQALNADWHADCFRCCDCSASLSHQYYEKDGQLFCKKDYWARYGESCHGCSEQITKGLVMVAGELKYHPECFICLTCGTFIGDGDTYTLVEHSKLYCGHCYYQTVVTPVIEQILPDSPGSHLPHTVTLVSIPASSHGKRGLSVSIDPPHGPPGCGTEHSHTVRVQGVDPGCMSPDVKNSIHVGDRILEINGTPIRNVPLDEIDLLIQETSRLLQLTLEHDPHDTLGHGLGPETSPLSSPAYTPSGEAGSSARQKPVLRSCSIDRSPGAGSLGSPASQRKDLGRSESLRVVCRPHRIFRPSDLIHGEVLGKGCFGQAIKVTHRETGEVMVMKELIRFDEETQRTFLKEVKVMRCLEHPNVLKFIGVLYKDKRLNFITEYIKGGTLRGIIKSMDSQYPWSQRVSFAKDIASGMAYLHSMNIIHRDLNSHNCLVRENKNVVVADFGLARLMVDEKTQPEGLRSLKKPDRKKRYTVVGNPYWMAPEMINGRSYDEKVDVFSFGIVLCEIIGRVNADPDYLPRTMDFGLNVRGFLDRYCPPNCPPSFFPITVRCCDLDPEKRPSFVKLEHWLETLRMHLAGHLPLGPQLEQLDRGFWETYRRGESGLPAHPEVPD
Protocol: as §1, §2

[10] = target: T10, RAF1 (Y340D, Y341D) (Homo sapiens, UniProt P04049, Y340D/Y341D); assay type: binding
T10 construct: purchased Invitrogen / ThermoFisher SelectScreen
T10 sequence (P04049 whole entry Y340D/Y341D): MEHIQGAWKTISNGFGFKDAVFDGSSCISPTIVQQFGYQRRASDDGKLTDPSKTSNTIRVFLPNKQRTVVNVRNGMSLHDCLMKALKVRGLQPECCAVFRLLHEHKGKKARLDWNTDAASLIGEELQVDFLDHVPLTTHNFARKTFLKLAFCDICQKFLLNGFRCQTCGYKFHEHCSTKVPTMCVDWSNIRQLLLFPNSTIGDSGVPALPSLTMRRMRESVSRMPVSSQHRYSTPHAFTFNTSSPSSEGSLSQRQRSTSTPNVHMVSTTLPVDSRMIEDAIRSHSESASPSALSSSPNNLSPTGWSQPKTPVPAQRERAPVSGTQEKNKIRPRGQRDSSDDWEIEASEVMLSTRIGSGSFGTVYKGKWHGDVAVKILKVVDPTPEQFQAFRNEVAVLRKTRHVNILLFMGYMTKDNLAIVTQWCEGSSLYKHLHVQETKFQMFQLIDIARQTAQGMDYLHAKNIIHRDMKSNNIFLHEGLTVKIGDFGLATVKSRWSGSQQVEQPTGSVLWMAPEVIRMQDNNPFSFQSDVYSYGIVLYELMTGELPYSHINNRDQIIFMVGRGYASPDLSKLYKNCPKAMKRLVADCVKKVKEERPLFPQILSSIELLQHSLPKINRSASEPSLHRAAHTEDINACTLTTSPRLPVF
Protocol: as §1, §2

[11] = target: T11, MEKK2 (Homo sapiens, UniProt Q9Y2U5); assay type: binding
T11 construct: purchased Invitrogen / ThermoFisher SelectScreen
T11 sequence (Q9Y2U5 whole entry): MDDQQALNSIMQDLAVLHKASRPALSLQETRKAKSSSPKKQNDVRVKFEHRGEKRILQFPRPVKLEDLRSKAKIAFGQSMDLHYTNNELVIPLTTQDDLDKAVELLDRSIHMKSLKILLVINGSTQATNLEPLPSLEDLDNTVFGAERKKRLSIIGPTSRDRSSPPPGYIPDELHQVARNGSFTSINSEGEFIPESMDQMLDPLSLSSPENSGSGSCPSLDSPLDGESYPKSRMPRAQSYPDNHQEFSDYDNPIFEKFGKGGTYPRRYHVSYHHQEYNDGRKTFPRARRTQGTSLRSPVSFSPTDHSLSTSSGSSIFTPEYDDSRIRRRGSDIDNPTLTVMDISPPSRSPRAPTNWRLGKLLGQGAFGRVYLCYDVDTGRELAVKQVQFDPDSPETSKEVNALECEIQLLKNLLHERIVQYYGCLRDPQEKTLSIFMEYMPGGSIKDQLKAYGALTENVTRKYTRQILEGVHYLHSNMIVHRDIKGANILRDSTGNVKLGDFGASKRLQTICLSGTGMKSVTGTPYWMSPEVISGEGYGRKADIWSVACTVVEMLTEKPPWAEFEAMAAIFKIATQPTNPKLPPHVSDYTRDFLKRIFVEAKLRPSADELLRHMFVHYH
Protocol: as §1, §2

[12] = target: T12, TEC (Homo sapiens, UniProt P42680); assay type: binding
T12 construct: purchased Invitrogen / ThermoFisher SelectScreen
T12 sequence (P42680 whole entry): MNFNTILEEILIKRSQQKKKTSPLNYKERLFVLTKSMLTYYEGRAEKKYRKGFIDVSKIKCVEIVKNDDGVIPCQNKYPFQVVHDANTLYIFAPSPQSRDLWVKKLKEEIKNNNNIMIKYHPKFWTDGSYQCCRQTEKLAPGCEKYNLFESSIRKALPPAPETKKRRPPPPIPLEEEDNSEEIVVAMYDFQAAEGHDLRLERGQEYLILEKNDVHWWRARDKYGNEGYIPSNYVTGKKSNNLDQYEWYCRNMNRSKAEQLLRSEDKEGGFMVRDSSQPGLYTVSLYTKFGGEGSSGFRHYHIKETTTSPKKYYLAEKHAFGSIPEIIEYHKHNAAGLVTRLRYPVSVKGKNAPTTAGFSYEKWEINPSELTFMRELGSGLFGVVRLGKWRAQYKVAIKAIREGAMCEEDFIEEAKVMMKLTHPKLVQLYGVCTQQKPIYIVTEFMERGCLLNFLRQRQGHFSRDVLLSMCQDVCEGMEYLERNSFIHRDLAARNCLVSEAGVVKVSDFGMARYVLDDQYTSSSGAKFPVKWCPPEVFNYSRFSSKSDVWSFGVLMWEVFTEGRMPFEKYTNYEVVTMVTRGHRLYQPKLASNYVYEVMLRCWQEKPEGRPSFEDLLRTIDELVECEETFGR
Protocol: as §1, §2

[13] = target: T13, MEK1 (Homo sapiens, UniProt Q02750); assay type: binding
T13 construct: purchased Invitrogen / ThermoFisher SelectScreen
T13 sequence (Q02750 whole entry): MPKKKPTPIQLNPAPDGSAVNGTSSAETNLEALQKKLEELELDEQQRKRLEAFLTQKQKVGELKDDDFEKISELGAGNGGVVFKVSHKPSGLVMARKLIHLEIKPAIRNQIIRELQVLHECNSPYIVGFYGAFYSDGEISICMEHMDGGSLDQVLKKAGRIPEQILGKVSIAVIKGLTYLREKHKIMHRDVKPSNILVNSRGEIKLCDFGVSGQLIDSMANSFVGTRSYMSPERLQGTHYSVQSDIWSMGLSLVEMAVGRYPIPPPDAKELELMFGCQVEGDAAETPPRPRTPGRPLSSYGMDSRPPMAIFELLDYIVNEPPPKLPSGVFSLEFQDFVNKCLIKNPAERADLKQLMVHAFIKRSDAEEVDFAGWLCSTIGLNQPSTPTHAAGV
Protocol: as §1, §2

[14] = target: T14, TGFBR1 (Homo sapiens, UniProt P36897); assay type: binding
T14 construct: purchased Invitrogen / ThermoFisher SelectScreen
Protocol: as §1, §2

[15] = target: T15, MLK2 (Homo sapiens, UniProt Q02779); assay type: binding
T15 construct: purchased Invitrogen / ThermoFisher SelectScreen
Protocol: as §1, §2

[16] = target: T16, ALK2 (Homo sapiens, UniProt Q04771); assay type: binding
T16 construct: purchased Invitrogen / ThermoFisher SelectScreen
Protocol: as §1, §2

[17] = target: T17, PhK_gamma2 (Homo sapiens, UniProt P15735); assay type: biochemical
T17 construct: purchased Invitrogen / ThermoFisher SelectScreen
T17 sequence (P15735 whole entry): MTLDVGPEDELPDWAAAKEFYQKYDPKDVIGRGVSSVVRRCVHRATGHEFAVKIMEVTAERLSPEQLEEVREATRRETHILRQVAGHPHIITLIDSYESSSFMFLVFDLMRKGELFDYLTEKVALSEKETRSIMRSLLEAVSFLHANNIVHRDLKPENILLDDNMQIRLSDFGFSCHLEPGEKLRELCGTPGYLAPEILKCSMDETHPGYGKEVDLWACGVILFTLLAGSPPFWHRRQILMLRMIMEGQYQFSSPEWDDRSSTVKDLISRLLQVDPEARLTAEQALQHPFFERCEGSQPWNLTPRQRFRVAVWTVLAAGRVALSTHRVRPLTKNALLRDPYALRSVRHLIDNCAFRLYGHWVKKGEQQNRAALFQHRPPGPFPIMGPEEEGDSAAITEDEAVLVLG

`COc1cc(C(N)=O)nc(-c2cccc(C#C[C@]3(O)CCN(C)C3=O)c2)c1` [NIK SMI1] was tested, and the inhibition at 1 µM [1] was 3.9%, the inhibition at 1 µM [2] was 31.1% and the inhibition at 1 µM [3] was 3%. The inhibition at 1 µM [4] was 13.7%, the inhibition at 1 µM [5] was -3.9% and the inhibition at 1 µM [6] was 7.8%. It also gave an inhibition at 1 µM [7] of -5.2%, an inhibition at 1 µM [8] of 3.8% and an inhibition at 1 µM [9] of 16.8%. For the same compound, the inhibition at 1 µM [10] was -1.5%, the inhibition at 1 µM [11] was 66.8% and the inhibition at 1 µM [12] was 1.1%. It also gave an inhibition at 1 µM [13] of 43.1%, an inhibition at 1 µM [14] of -9.4% and an inhibition at 1 µM [15] of 9.9%. It also gave an inhibition at 1 µM [16] of 5.8% and an inhibition at 1 µM [17] of -3%.
